From patent publication US20180110824A1, “Macrocyclic Modulators of the Ghrelin Receptor” (Ocera Therapeutics, Inc., priority 2016, published 2018) come the findings set out here.

pKi: −log10 of the molar value. Like-named read-outs stand apart in the source and are kept apart here. Where only a bound is given, the exact number is not on record here.

As usually defined, the pKi is the Ki on a negative log10 scale, so that one unit is a factor of ten.

The assay concerns the target T1, human growth hormone secretagogue receptor (hGHS-R1a) (Homo sapiens, UniProt Q92847).
T1 construct: purchased PerkinElmer BioSignal #RBHGHSM; host or cells: HEK-293, stably transfected
The assay is described as follows: Competitive radioligand binding assay (ghrelin receptor), [125I]-ghrelin displacement on GHS-R/HEK 293 membranes.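 For Binding Activity at the Human Ghrelin Receptor (Ki): symbols B 10-100 nM C 0.1-1 µM D 1-10 µM F above 1 µM G above 10 µM.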 Here is the method: The competitive binding assay at the human growth hormone secretagogue receptor (hGHS-R1a) was carried out analogously to assays described in the literature.
Multiscreen Harvest plates-GF/C (Millipore, #MAHFC1H60) • 4. […] Bottom seal (Millipore, #MATAH0P00) • 7. […] Binding Buffer: 25 mM Hepes (pH 7.4), 1 mM CaCl2, 5 mM MgCl2, 2.5 mM EDTA, 0.4% BSA
Competition experiments were performed in a 300 μl filtration assay format. • 1. 220 μL of membranes diluted in binding buffer • 2. 40 μL of compound diluted in binding buffer • 3.
Compounds were provided frozen on dry ice at a stock concentration of 10 mM diluted in 100% DMSO and stored at −80° C. until the day of testing. On the test day, compounds were allowed to thaw at rt O/N and then diluted in assay buffer according to the desired test concentrations. Under these conditions, the maximal final DMSO concentration in the assay was 0.1%.
Plates were sealed with TopSeal-A, vortexed gently and incubated at rt for 30 min. The reaction was arrested by filtering samples through Multiscreen Harvest plates (pre-soaked in 0.5% polyethyleneimine) using a Tomtec Harvester, washed 9 times with 500 μL of cold 50 mM Tris-HCl (pH 7.4, 4° C.), and then plates were air-dried in a fumehood 30 min. A bottom seal was applied to the plates prior to the addition of 25 μL of MicroScint-0 to each well. […] Results were expressed as counts per minute (cpm).
Data were analyzed by GraphPad Prism (GraphPad Software, San Diego, Calif.) using […] non-linear regression analysis.
where total and non-specific binding represent the cpm obtained in the absence or presence of 1 μM ghrelin, respectively.
• 1. Binding performed on membranes prepared from HEK293 expressing the transfected, cloned human ghrelin receptor (hGHS-R1a). • 2. […] Ghrelin (unlabeled, 1 μM) was used to determine non-specific binding. • 4.

Where [1] appears, read: Binding activity at the human ghrelin receptor, [125I]-ghrelin displacement, read-out: Ki.
[2] abbreviates: Table 3B, binding activity at the human ghrelin receptor, read-out: Ki.
Where [3] appears, read: [125I]-ghrelin displacement, GHS-R/HEK 293 membranes, class symbols, read-out: Binding Activity at the Human Ghrelin Receptor (Ki).

T1 sequence (Q92847 whole entry): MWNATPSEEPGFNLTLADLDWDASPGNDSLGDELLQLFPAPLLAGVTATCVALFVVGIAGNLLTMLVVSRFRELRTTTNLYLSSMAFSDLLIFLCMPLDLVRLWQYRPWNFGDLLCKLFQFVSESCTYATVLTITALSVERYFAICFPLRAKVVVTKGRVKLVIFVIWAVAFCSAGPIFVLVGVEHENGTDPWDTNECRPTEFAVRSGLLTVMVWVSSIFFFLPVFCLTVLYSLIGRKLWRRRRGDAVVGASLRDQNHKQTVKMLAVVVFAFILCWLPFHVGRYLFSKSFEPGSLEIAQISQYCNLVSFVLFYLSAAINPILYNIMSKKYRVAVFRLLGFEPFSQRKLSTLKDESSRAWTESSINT

As to `CC(C)C1NCCOc2ccccc2/C=C/CNC(=O)C(Cc2ccccc2)NC(=O)C2(CCSCC2)NC1=O` (stereo not drawn) [compound 143], the pKi under setting [1] was 6.00 to 7.00.

With `C[C@@H]1C(=O)N[C@H](Cc2ccccc2F)C(=O)NCCCc2ccccc2OCCN[C@@H](C2CC2)C(=O)N1C` [compound 312], the pKi under setting [2] was 8.00 to 10.00.

Regarding `CSCC[C@@H]1NCCOc2ccccc2CCCNC(=O)[C@@H](Cc2ccc(F)cc2)NC(=O)[C@@H](C)N(C)C1=O` [compound 340], the pKi under setting [2] is 7.00 to 8.00.

For the compound `CCC[C@@H]1NCCOc2ccccc2CCCNC(=O)[C@@H](Cc2ccccc2)NC(=O)[C@@H](CC(C)C)NC1=O` [compound 63], the pKi under setting [1] is less than 5.00.

For the compound `CCC(C)C1NCCCc2ccccc2C=CCCNC(=O)C(Cc2cccc(Cl)c2)NC(=O)C2(CCCC2)NC1=O` (stereo not drawn) [compound 361], the pKi under setting [2] was 6.00 to 7.00.

Consider `CC(C)C[C@@H]1NCCOCCNC(=O)[C@H](Cc2ccccc2)NC(=O)C2(CCCC2)NC1=O` [compound 44], for which, under setting [1], the negative logarithm of the Ki (pKi) is less than 5.00.

With `CC(C)C[C@@H]1NC[C@@H](C)Oc2ccccc2CCCNC(=O)[C@H](Cc2cccc(Cl)c2)NC(=O)C2(CCCC2)NC1=O` [compound 438], the pKi (Table 3D, read-out: Ki) was 5.00 to 6.00.

On to `CC(C)C[C@@H]1NCCOc2ccccc2CCCNC(=O)[C@H](Cc2ccccc2)NC(=O)C(C)(C)NC1=O` [compound 95], for which the negative-log Ki (pKi) under setting [1] is 5.00 to 6.00.

Take `C[C@H]1C(=O)N[C@H](Cc2cccc(Cl)c2)C(=O)NC/C=C/c2ccccc2OCCNC2(CCCC2)C(=O)N1C` [compound 397]: the pKi (Table 3C, read-out: Ki) is 6.00 to 7.00.

Take `CC[C@H](C)[C@@H]1NCCOc2ccccc2/C=C/CNC(=O)[C@H](Cc2cccc(Br)c2)NC(=O)C2(CCCC2)NC1=O` [compound 326]: the pKi under setting [2] was 7.00 to 8.00.

Regarding `CC[C@H](C)[C@@H]1NCCCCCCCNC(=O)[C@H](Cc2cccc(Cl)c2)NC(=O)C2(CCCC2)NC1=O` [compound 366], under setting [2], the pKi was 6.00 to 7.00.

Take `CC(C)[C@@H]1NCCOc2ccccc2/C=C/CNC(=O)[C@H](Cc2ccccc2)NC(=O)C2(CCCC2)NC1=O` [compound 200]: the pKi under setting [3] was 7.00 to 8.00.

Take `CC[C@H](C)[C@@H]1NCCOc2ccccc2C#CCNC(=O)[C@H](Cc2cccc(Cl)c2)NC(=O)C2(CCCC2)NC1=O` [compound 381]: under setting [2], the pKi is 7.00 to 8.00.

Turning to `CCC[C@@H]1NCCOc2ccccc2CCCNC(=O)[C@@H](CO)NC(=O)CN(C)C1=O` [compound 54], the negative logarithm of the Ki (pKi) under setting [1] was less than 5.00.

For the compound `C[C@@H]1C(=O)N[C@H](Cc2ccc(F)cc2)C(=O)NCCCc2cc(Cl)ccc2OCCN[C@@H](C2CC2)C(=O)N1C` [compound 373], under setting [2], the negative-log Ki (pKi) is 7.00 to 8.00.

Consider `COC[C@@H]1NCCOc2ccccc2/C=C/CNC(=O)[C@H](Cc2cccc(Cl)c2)NC(=O)C2(CCCC2)NC1=O` [compound 344], for which the pKi under setting [2] is 6.00 to 7.00.

Take `C[C@@H]1C(=O)N[C@H](Cc2ccc(F)cc2)C(=O)NCCC(C)(C)c2ccccc2OCCN[C@@H](C2CC2)C(=O)N1C` [compound 378]: the pKi under setting [2] was 6.00 to 7.00.

Turning to `CCC[C@@H]1NCCOc2ccccc2CCCNC(=O)[C@@H](CCCN)NC(=O)CN(C)C1=O` [compound 53], the negative-log Ki (pKi) under setting [1] was less than 5.00.

As to `O=C1NC2(CCCC2)C(=O)N[C@@H](Cc2ccccc2)C(=O)NC/C=C/c2ccccc2OCCN[C@H]1Cc1cccs1` [compound 135], the pKi under setting [1] was 6.00 to 7.00.

Regarding `CCC[C@@H]1NCc2ccccc2Sc2ccccc2CNC(=O)[C@@H](Cc2ccccc2)NC(=O)CN(C)C1=O` [compound 77], under setting [1], the pKi is 6.00 to 7.00.

Regarding `O=C1NC2(CCCC2)C(=O)N[C@@H](Cc2ccccc2)C(=O)NC/C=C/c2ccccc2OCCN[C@H]1Cc1ccccn1` [compound 210], the negative-log Ki (pKi) under setting [3] was less than 6.00.

For the compound `CC[C@@H](C)[C@@H]1C(=O)N[C@H](Cc2ccccc2)C(=O)NCCCc2ccccc2OCCN[C@@H]([C@@H](C)CC)C(=O)N1C` [compound 149], under setting [1], the pKi is 5.00 to 6.00.

As to `CCC(C)[C@@H]1NCCCc2ccccc2/C=C/CNC(=O)[C@@H](Cc2ccc(F)cc2)NC(=O)[C@@H](C)N(C)C1=O` (stereo partly drawn) [353a], the pKi under setting [2] was 7.00 to 8.00.

Consider `CC[C@H](C)[C@@H]1NCCOc2ccccc2C(C)CCNC(=O)[C@H](Cc2cccc(Cl)c2)NC(=O)C2(CCCC2)NC1=O` (stereo partly drawn) [compound 386], for which the pKi under setting [2] is 6.00 to 7.00.
